Assay results from article PMC7472354, “Enhanced Antimicrobial Activity of N-Terminal Derivatives of a Novel Brevinin-1 Peptide from The Skin Secretion of Odorrana schmackeri” (Toxins, 2020).
Where a SMILES comes first, the peptide text is derived from it.

What was measured:
[1] = tested on: Galleria mellonella larvae; experiment: Toxicity to uninfected Galleria mellonella larvae; format: in vivo; conditions: uninfected G. mellonella larvae injected with drug; n = 30 per group; vancomycin 20 mg/kg
Method: The in vivo study of antimicrobial activity of the peptides was evaluated using the larvae of Galleria mellonella, which was described in the previous study with minor modifications. The larvae of Galleria mellonella (250 ± 25 mg; Livefood UK Ltd., Rooks Bridge, UK) were selected. The MRSA culture was prepared the same way as the antimicrobial activity assay. Then, MRSA cells were collected and washed, and further diluted to 10^8 CFU/mL in the saline. Ten µL of MRSA suspension was injected to the larvae and placed in a petri dish. After 2 h, the MRSA infected larvae were administrated with 10 µL of peptides (25 mg/kg, 50 mg/kg) by injection. Saline and vancomycin (20 mg/kg) (Sigma-Aldrich, UK) were used as the negative control and positive control, respectively. Each sample group contained 10 larvae, and the experiment was repeated three times (30 larvae for each group in total). The survival curves were achieved using Prism (Version 6.0; GraphPad Software Inc., San Diego, CA, USA) and the log-rank test was employed to analyze the significance between the different treatments and the controls. * (p < 0.05), ** (p < 0.01) and *** (p < 0.001) represent statistical significance.
Figure A9 Larvae without any MRSA infection were injected with peptides and vancomycin respectively to access the cytotoxicity of the drugs to larvae bodies. […] Effect of treatment of G. mellonella larvae (n = 30 for each group) without any infection and only treated with 5 µL vancomycin (20 mg/kg), OSd, OSe and OSf.

[2] = tested on: Methicillin-resistant Staphylococcus aureus (MRSA, ATCC 12493); format: cell-based
Method: (§1) The minimal inhibitory concentrations (MICs) and minimum bactericidal concentrations (MBCs) were evaluated to determine the antimicrobial activity of synthetic peptides. The microorganisms employed in the study are two kinds of Gram-negative bacteria, Escherichia coli (NCTC 10418) and Pseudomonas aeruginosa (ATCC 27853), three kinds of Gram-positive bacteria, Staphylococcus aureus (NCTC 10788), Methicillin-resistant Staphylococcus aureus (MRSA, ATCC 12493) and Enterococcus faecalis (NCTC 12697) and a yeast, Candida albicans (NCPF 1467), as indicated previously. […] The sterilised broth medium was used as the positive control and the microorganism cultured in the medium only was treated as the negative control. […] The MBC results were defined as the lowest bactericidal concentrations of peptide. The antimicrobial activity of peptides was tested by monitoring the absorbance at 550 nm using an ELISA plate reader (Biolise BioTek EL808, Winooski, VT, USA).

[3] = tested on: Candida albicans (NCPF 1467); format: cell-based
Method: as §1

[4] = tested on: Enterococcus faecalis (NCTC 12697); format: cell-based
Method: as §1

[5] = tested on: Pseudomonas aeruginosa (ATCC 27853); format: cell-based
Method: as §1

[6] = tested on: Escherichia coli (NCTC 10418); format: cell-based
Method: as §1

[7] = tested on: Staphylococcus aureus (NCTC 10788); format: cell-based
Method: as §1

MIC ([2]; ATCC 12493, 24 h) [µM]	MIC ([3]; NCPF 1467, 24 h) [µM]	MIC ([4]; NCTC 12697, 24 h) [µM]	MIC ([5]; ATCC 27853, 24 h) [µM]	MIC ([6]; NCTC 10418, 24 h) [µM]	MIC ([7]; NCTC 10788, 24 h) [µM]	Structure (SMILES)	toxicity to larvae without MRSA infection [1]	MBC ([2]; ATCC 12493, 18 h) [µM]	MBC ([3]; NCPF 1467, 18 h) [µM]	MBC ([4]; NCTC 12697, 18 h) [µM]	MBC ([5]; ATCC 27853, 18 h) [µM]	MBC ([6]; NCTC 10418, 18 h) [µM]	MBC ([7]; NCTC 10788, 18 h) [µM]
						CN[C@H](CC(C)C)C(=O)N[C@H]1C(=O)N[C@@H](CC(N)=O)C(=O)N[C@H]2C(=O)N[C@H]3C(=O)N[C@H](C(=O)N[C@H](C(=O)O)c4cc(O)cc(O)c4-c4cc3ccc4O)[C@H](O)c3ccc(c(Cl)c3)Oc3cc2cc(c3O[C@@H]2O[C@H](CO)[C@@H](O)[C@H](O)[C@H]2O[C@H]2C[C@](C)(N)[C@H](O)[C@H](C)O2)Oc2ccc(cc2Cl)[C@H]1O [vancomycin, reference compound]	No noticeable cytotoxicity						
> 512	> 512	> 512	> 512	> 512	> 512	CC[C@H](C)[C@H](NC(=O)[C@@H](NC(=O)CNC(=O)[C@@H]1CCCN1C(=O)[C@@H](NC(=O)[C@@H](NC(=O)[C@H](CC(N)=O)NC(=O)[C@H](C)NC(=O)[C@H](C)NC(=O)[C@@H](NC(=O)[C@H](CCCCN)NC(=O)[C@H](CC(C)C)NC(=O)[C@@H](NC(=O)CNC(=O)[C@@H]1CCCN1C(=O)[C@H](CC(C)C)NC(=O)[C@@H](N)Cc1ccccc1)[C@@H](C)CC)C(C)C)C(C)C)C(C)C)C(C)C)C(=O)O [OSa] (H-FLPGILKVAANVVPGVI-OH)		> 512	> 512	> 512	> 512	> 512	> 512
